The source of these data is US20220194938A1, “NOVEL COMPOUNDS AND PHARMACEUTICAL COMPOSITIONS THEREOF FOR THE TREATMENT OF INFLAMMATORY DISORDERS” (GALAPAGOS NV, priority 2019, published 2022).

The structures appear in SMILES notation.

The target of one data set is T1, human IRAK-4 (Homo sapiens, UniProt Q9NWZ3).
T1 construct: purchased Carna Biosciences 09 145
T1 sequence (Q9NWZ3 1-460): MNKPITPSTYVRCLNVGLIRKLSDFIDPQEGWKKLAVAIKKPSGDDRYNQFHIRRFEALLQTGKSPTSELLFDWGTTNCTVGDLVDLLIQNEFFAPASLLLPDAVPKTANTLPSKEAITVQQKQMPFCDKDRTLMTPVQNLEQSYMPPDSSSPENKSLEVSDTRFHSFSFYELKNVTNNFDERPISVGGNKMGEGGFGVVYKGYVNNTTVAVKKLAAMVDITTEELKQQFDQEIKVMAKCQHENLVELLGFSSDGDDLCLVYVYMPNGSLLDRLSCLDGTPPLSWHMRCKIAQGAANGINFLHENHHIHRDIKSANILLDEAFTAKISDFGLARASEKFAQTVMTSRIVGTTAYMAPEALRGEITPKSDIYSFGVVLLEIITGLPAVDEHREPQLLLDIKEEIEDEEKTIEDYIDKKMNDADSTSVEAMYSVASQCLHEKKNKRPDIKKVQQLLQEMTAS
The data set is described as follows: Phosphorylation IC50 determination for human IRAK-4 (ADP-Glo kinase assay). As to conditions: human IRAK-4, RIP140 substrate, Km ATP; read-out: IRAK4 ADPglo biochemical assay IC50. The procedure, abridged: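 IRAK-4 phosphorylation of RIP140 at Km ATP in Tris pH 7.5 buffer with Triton X-100, EGTA, MgCl2, DTT and MnCl2, 120 min at room temperature. ADP formed was measured by ADP-Glo luminescence. Ten-point, 5-fold dilutions (highest final 20 μM, automated format; 1% DMSO), normalised to staurosporine (100%) and DMSO (0%) controls.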

In data set [1] the test system is pooled cryopreserved hepatocytes. In words: Metabolic stability in hepatocytes (mouse). Format: in vitro ADME. As to conditions: 1 μM test compound. On the procedure: 4.6. Metabolic Stability in Hepatocytes
The aim of this assay is to determine the metabolic stability of the compound in hepatocytes (cryopreserved) of different species. Low hepatocyte stability may result in the formation of unwanted metabolites, high clearance, and therefore is not desirable.
The decrease in parent was assessed by measuring the percentage remaining by LC-MS/MS analysis.
A 10 mM stock solution of test compound in DMSO was first diluted in DMSO to 3 mM, and then in modified Krebs-Henseleit buffer (Sigma, K3753) to 5 μM. This compound dilution was added to a suspension of pooled cryopreserved hepatocytes (BioreclamationIVT) at 37° C. under gentle shaking.
Final reaction conditions were: 1 μM of test compound, 0.03% DMSO, 0.5 million viable hepatocytes/mL, and 75 μL incubation volume.
Testosterone (1 μM) and 7-hydroxycoumarin (1 μM) were used, respectively as phase I and phase II metabolic reaction controls.
After 0, 10, 20, 45, 90, 120 and 180 min of incubation, the reaction was terminated with 225 μL of MeCN:MeOH (2:1) containing 100 ng/mL of diclofenac as analytical internal standard. Samples were mixed, centrifuged and the supernatant analyzed by LC-MS/MS.
The instrument responses (ratios of test compound and internal standard peak areas) were referenced to the zero time point samples (considered as 100%) in order to determine the percentage of compound remaining.
Plots of percentage compound remaining are used to determine the intrinsic clearance in the hepatocyte incubations using the following equations:
Scaled Clint[L/h/kg]=Clint[μL/min/10^6 cells]*#(10^6) cells/g liver*60*(1/10^6) Scaled Clint unbound [L/h/kg]=Clint [L/h/kg]/Fu,inc where: fu,inc equals hepatocyte binding, derived from microsomal binding (fu,mic) by following equation: […]

In the case of `[2H]C([2H])([2H])NC(=O)c1cc2nc(CCC(C)(C)O)cn2cc1NC(=O)c1cccc(C(F)(F)F)n1` [Compound 1, 2-(3-hydroxy-3-methyl-butyl)-N-(trideuteriomethyl)-6-[[6-(trifluoromethyl)pyridine-2-carbonyl]amino]imidazo[1,2-a]pyridine-7-carboxamide], the IC50 (commonly the concentration needed to halve the response being measured) at human IRAK-4 is 0.1 to 5 nM. The “Mouse (Perc. remaining at 90 min)” value in data set [1] was found to be 96.3%.
Turning to `CNC(=O)c1cc2nc(CCC(C)(C)O)cn2cc1NC(=O)c1cccc(C(F)(F)F)n1` [Compound 2, 2-(3-hydroxy-3-methyl-butyl)-N-methyl-6-[[6-(trifluoromethyl)pyridine-2-carbonyl]amino]imidazo[1,2-a]pyridine-7-carboxamide], the half-inhibitory concentration (IC50) at human IRAK-4 fell in the range of 0.1 to 5 nM. In addition, in data set [1], the “Mouse (Perc. remaining at 90 min)” value is 103.4%.
The corresponding values for `COc1cc2nc(CCC(C)(C)O)cn2cc1NC(=O)c1cccc(C(F)(F)F)n1` [Compound 3, N-[2-(3-hydroxy-3-methyl-butyl)-7-methoxy-imidazo[1,2-a]pyridin-6-yl]-6-(trifluoromethyl)pyridine-2-carboxamide] are 0.1 to 5 nM and 39.9%.
For the compound `COc1cc2nc(CCC(C)(C)O)cn2cc1NC(=O)c1cccn(C)c1=O` [Compound 4, N-[2-(3-hydroxy-3-methyl-butyl)-7-methoxy-imidazo[1,2-a]pyridin-6-yl]-1-methyl-2-oxo-pyridine-3-carboxamide], the IC50 at human IRAK-4 fell in the range of 5 to 10 nM. For the same compound, the “Mouse (Perc. remaining at 90 min)” value in data set [1] was found to be 87.75%.
`COc1cc2nc(CCC(C)(C)O)cn2cc1NC(=O)c1cccn(C2CC2)c1=O` [Compound 5, 1-cyclopropyl-N-[2-(3-hydroxy-3-methyl-butyl)-7-methoxy-imidazo[1,2-a]pyridin-6-yl]-2-oxo-pyridine-3-carboxamide]: the 50% inhibitory concentration (IC50) on human IRAK-4 was 0.1 to 5 nM. For the same compound, the “Mouse (Perc. remaining at 90 min)” value in data set [1] came out at 100%.
With `COc1cc2nc(CCC(C)(C)O)cn2cc1NC(=O)c1cccc(C)n1` [Compound 6, N-[2-(3-hydroxy-3-methyl-butyl)-7-methoxy-imidazo[1,2-a]pyridin-6-yl]-6-methyl-pyridine-2-carboxamide], the IC50 on human IRAK-4 fell in the range of 0.1 to 5 nM. For the same compound, the “Mouse (Perc. remaining at 90 min)” value in data set [1] is recorded as 4.5%.
Taken in the same sequence, the figures for `COc1cc2nc(CCC(C)(C)O)cn2cc1NC(=O)c1cccc(C(F)F)n1` [Compound 7, 6-(difluoromethyl)-N-[2-(3-hydroxy-3-methyl-butyl)-7-methoxy-imidazo[1,2-a]pyridin-6-yl]pyridine-2-carboxamide] were 0.1 to 5 nM and 26.4%.
For `COc1cccc(C(=O)Nc2cn3cc(CCC(C)(C)O)nc3cc2OC)n1` [Compound 8, N-[2-(3-hydroxy-3-methyl-butyl)-7-methoxy-imidazo[1,2-a]pyridin-6-yl]-6-methoxy-pyridine-2-carboxamide], at human IRAK-4, the concentration for half-maximal inhibition (IC50) was in the range of 0.1 to 5 nM. For the same compound, the “Mouse (Perc. remaining at 90 min)” value in data set [1] came to 26.4%.
Regarding `COc1cc2nc(CCC(C)(C)O)cn2cc1NC(=O)c1cccn(C(F)F)c1=O` [Compound 12, 1-(difluoromethyl)-N-[2-(3-hydroxy-3-methyl-butyl)-7-methoxy-imidazo[1,2-a]pyridin-6-yl]-2-oxo-pyridine-3-carboxamide], at human IRAK-4, the half-inhibitory concentration (IC50) fell in the range of 5 to 10 nM. The “Mouse (Perc. remaining at 90 min)” value in data set [1] amounted to 88.1%.
With `COc1cc2nc(CCC(C)(C)O)cn2cc1NC(=O)c1cccn(CC(F)(F)F)c1=O` [Compound 13, N-[2-(3-hydroxy-3-methyl-butyl)-7-methoxy-imidazo[1,2-a]pyridin-6-yl]-2-oxo-1-(2,2,2-trifluoroethyl)pyridine-3-carboxamide], on human IRAK-4, the half-maximal inhibitory concentration (IC50) was greater than 50 nM. In addition, the “Mouse (Perc. remaining at 90 min)” value in data set [1] stood at 109.5%.
Take `COc1cc2nc(CCC(C)(C)O)cn2cc1NC(=O)c1cccn(C2CCC2)c1=O` [Compound 18, 1-cyclobutyl-N-[2-(3-hydroxy-3-methyl-butyl)-7-methoxy-imidazo[1,2-a]pyridin-6-yl]-2-oxo-pyridine-3-carboxamide]: on human IRAK-4, the IC50 was 0.1 to 5 nM. Besides, the “Mouse (Perc. remaining at 90 min)” value in data set [1] amounted to 60.9%.
The corresponding values for `COc1cc2nc(CCC(C)(C)O)cn2cc1NC(=O)c1cccc(C(C)(F)F)n1` [Compound 20, 6-(1,1-difluoroethyl)-N-[2-(3-hydroxy-3-methyl-butyl)-7-methoxy-imidazo[1,2-a]pyridin-6-yl]pyridine-2-carboxamide] are 0.1 to 5 nM and 75.2%.
Consider `CCn1cccc(C(=O)Nc2cn3cc(CCC(C)(C)O)nc3cc2OC)c1=O` [Compound 23, 1-ethyl-N-[2-(3-hydroxy-3-methyl-butyl)-7-methoxy-imidazo[1,2-a]pyridin-6-yl]-2-oxo-pyridine-3-carboxamide], for which the IC50 on human IRAK-4 fell in the range of 5 to 10 nM. In addition, the “Mouse (Perc. remaining at 90 min)” value in data set [1] is recorded as 89.65%.
On to `COc1cc2nc(CCS(C)(=O)=O)cn2cc1NC(=O)c1cccc(C(F)(F)F)n1` [Compound 24, N-[7-methoxy-2-(2-methylsulfonylethyl)imidazo[1,2-a]pyridin-6-yl]-6-(trifluoromethyl)pyridine-2-carboxamide], for which the IC50 at human IRAK-4 lay within 0.1 to 5 nM. Further, the “Mouse (Perc. remaining at 90 min)” value in data set [1] amounted to 46%.
Taken in the same sequence, the figures for `COc1cc2nc(CCS(C)(=O)=O)cn2cc1NC(=O)c1cccn(C2CC2)c1=O` [Compound 25, 1-cyclopropyl-N-[7-methoxy-2-(2-methylsulfonylethyl)imidazo[1,2-a]pyridin-6-yl]-2-oxo-pyridine-3-carboxamide] were 0.1 to 5 nM and 95.05%.
Taken in the same sequence, the figures for `CC(C)(O)CCc1cn2cc(NC(=O)c3cccc(C(F)(F)F)n3)c(C(N)=O)cc2n1` [Compound 31, 2-(3-hydroxy-3-methyl-butyl)-6-[[6-(trifluoromethyl)pyridine-2-carbonyl]amino]imidazo[1,2-a]pyridine-7-carboxamide] were 0.1 to 5 nM and 96.5%.
The corresponding values for `COCCc1cn2cc(NC(=O)c3cccc(C(F)(F)F)n3)c(OC)cc2n1` [Compound 35, N-[7-methoxy-2-(2-methoxyethyl)imidazo[1,2-a]pyridin-6-yl]-6-(trifluoromethyl)pyridine-2-carboxamide] are 10 to 50 nM and 25.85%.
For `CCOc1c(NC(=O)c2cccn(C3CC3)c2=O)cn2cc(CCC(C)(C)O)nc2c1F` [Compound 37, 1-cyclopropyl-N-[7-ethoxy-8-fluoro-2-(3-hydroxy-3-methyl-butyl)imidazo[1,2-a]pyridin-6-yl]-2-oxo-pyridine-3-carboxamide], the half-inhibitory concentration (IC50) at human IRAK-4 was 0.1 to 5 nM. Moreover, the “Mouse (Perc. remaining at 90 min)” value in data set [1] was 103.5%.
For the compound `CCOc1c(NC(=O)c2cccn(C)c2=O)cn2cc(CCC(C)(C)O)nc2c1F` [Compound 38, N-[7-ethoxy-8-fluoro-2-(3-hydroxy-3-methyl-butyl)imidazo[1,2-a]pyridin-6-yl]-1-methyl-2-oxo-pyridine-3-carboxamide], the IC50 at human IRAK-4 was in the range of 5 to 10 nM.
`CCOc1c(NC(=O)c2cccn(C3CC3)c2=O)cn2cc(CCS(C)(=O)=O)nc2c1F` [Compound 39, 1-cyclopropyl-N-[7-ethoxy-8-fluoro-2-(2-methylsulfonylethyl)imidazo[1,2-a]pyridin-6-yl]-2-oxo-pyridine-3-carboxamide]: the IC50 at human IRAK-4 was 5 to 10 nM.
For `COc1c(NC(=O)c2cccn(C3CC3)c2=O)cn2cc(CCC(C)(C)O)nc2c1F` [Compound 42, 1-cyclopropyl-N-[8-fluoro-2-(3-hydroxy-3-methyl-butyl)-7-methoxy-imidazo[1,2-a]pyridin-6-yl]-2-oxo-pyridine-3-carboxamide], the IC50 on human IRAK-4 was in the range of 0.1 to 5 nM. Also, in data set [1], the “Mouse (Perc. remaining at 90 min)” value was 91.45%.
For `CC(C)(O)CCc1cn2cc(NC(=O)c3cccc(C(F)(F)F)n3)c(C(=O)NCC(F)F)cc2n1` [Compound 48, N-(2,2-difluoroethyl)-2-(3-hydroxy-3-methylbutyl)-6-(6-(trifluoromethyl)picolinamido)imidazo[1,2-a]pyridine-7-carboxamide], the IC50 at human IRAK-4 lay in the range of 0.1 to 5 nM. Moreover, the “Mouse (Perc. remaining at 90 min)” value in data set [1] came out at 86%.
